Experimental data from ChEMBL document CHEMBL1649085.

How the values were obtained:
Type in all cases: ADME, organism-based
[1] = tested on: Plasma; assay: Drug uptake in rat plasma at 10 mg/kg, po; design: dose 10 mg/kg, route oral; conditions: in vivo
[2] = Tmax in rat at 10 mg/kg, po; design: dose 10 mg/kg, route oral; conditions: in vivo
[3] = AUC (0 to time) in rat at 10 mg/kg, po; design: dose 10 mg/kg, route oral; conditions: plasma
[4] = Cmax in rat at 10 mg/kg, po; design: dose 10 mg/kg, route oral; conditions: in vivo
[5] = Oral bioavailability in rat at 10 mg/kg, po; conditions: in vivo
[6] = Ratio of drug level in brain to plasma in rat at 10 mg/kg, po; design: dose 10 mg/kg, route oral
[7] = tested on: Brain; assay: Drug uptake in rat brain at 10 mg/kg, po; design: dose 10 mg/kg, route oral; conditions: in vivo, read-out: Drug uptake

Row | SMILES | concentration [1] | Tmax [2] | AUC(0-t) [3] | Cmax [4] | bioavailability [5] | BPR [6] | concentration [7]
1 | Cc1c(OCc2cccc(-c3ccc(C(=O)O)cc3)c2)cc2c(c1C)C(=O)C(C1CCCC1)C2 (stereo not drawn) | 0.027 µM | 2 h | 0.281 µM·h | 0.097 µM | 33% | – | –
2 | O=C(O)c1cc(-c2cccc(COc3ccc4c(=O)n(C5CCCC5)sc4c3)c2)ccc1Cl | 1 µM | 1.83 h | 43.3 µM·h | 4.1 µM | – | 4.8 | 4.8 µM
3 | O=C(O)c1cc(-c2cccc(COc3ccc4c(c3)CN(C3CCCC3)C4=O)c2)ccc1Cl | 12.3 µM | 1.33 h | 106 µM·h | 14.4 µM | 40% | 0.3 | 3.8 µM
